One experiment deals with T1, KRAS-G12D and SOS1 (Homo sapiens, UniProt P01116, G12D).
T1 construct: purchased
The experiment in a line: Inhibition of KRAS-G12D/SOS1 binding (Cisbio binding kit, 665/615 ratio), Effect Embodiment A. As to conditions: read-out: GTP-KRAS-G12D:SOS1 IC50. The essentials:
(§1)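 Test compounds were serially diluted 3-fold from the storage solution over 11 points and dispensed in duplicate wells at 1% final DMSO.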

Another experiment addresses T2, KRAS_G12D and cRAF (Homo sapiens, UniProt P01116, G12D).
T2 construct: purchased
The experiment can be described thus: Inhibition of KRAS_G12D/cRAF binding (Cisbio binding kit, 665/615 ratio), Effect Embodiment B. To be noted: read-out: GTP-KRAS-G12D:CRAF IC50. An outline of the steps: as §1

Another experiment concerns the target T3, KRAS_WT and SOS1 (Homo sapiens, UniProt P01116).
T3 construct: purchased
The experiment can be described thus: Inhibition of KRAS_WT/SOS1 binding (Cisbio binding kit, 665/615 ratio), Effect Embodiment C. As to conditions: read-out: GTP-KRAS-WT:SOS1 IC50. The essentials:
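Compounds tested as 3-fold, 11-point dilutions in duplicate at 1% DMSO final against the KRAS_WT/SOS1 binding system. IC50 derived by nonlinear regression fit.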

pIC50: −log10 of the molar value. Counter-ions that a name gives are not always drawn.

T3 sequence (P01116 1-188 isoform P01116-2): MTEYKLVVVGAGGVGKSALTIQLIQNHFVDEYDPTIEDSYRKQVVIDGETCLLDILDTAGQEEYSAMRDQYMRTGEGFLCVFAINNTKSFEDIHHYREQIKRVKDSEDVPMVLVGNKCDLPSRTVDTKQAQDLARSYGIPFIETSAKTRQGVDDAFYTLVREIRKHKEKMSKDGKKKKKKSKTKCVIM
T2 sequence (P01116 1-188 isoform P01116-2 G12D): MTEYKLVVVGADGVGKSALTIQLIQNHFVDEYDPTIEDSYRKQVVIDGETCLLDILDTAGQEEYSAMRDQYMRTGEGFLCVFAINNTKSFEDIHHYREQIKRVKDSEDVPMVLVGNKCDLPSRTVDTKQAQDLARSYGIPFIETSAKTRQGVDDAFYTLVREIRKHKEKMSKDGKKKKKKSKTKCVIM
T1 sequence (P01116 1-188 isoform P01116-2 G12D): as above

For the compound `CO[C@@H](COc1nc(N2CC3CCC(C2)N3)c2cc(Cl)c(-c3cc(O)cc4ccccc34)c(F)c2n1)CN1C2CCCC1CC2` (single isomer, unassigned) [Compound 257, (4S or 4R)-4-(2-((2R)-3-(8-azabicyclo[3.2.1]octan-8-yl)-2-methoxypropoxy)-4-((1R,5S)-3,8-diazabicyclo[3.2.1]octan-3-yl)-6-chloro-8-fluoroquinazolin-7-yl)naphthalen-2-ol formate], the pIC50 at KRAS-G12D and SOS1 was 7.19; on KRAS_G12D and cRAF it was 6.53; on KRAS_WT and SOS1, below 5.00.

For the compound `Oc1cc(-c2c(Cl)cc3c(N4CC5CCC(C4)N5)nc(OCCCN4CCC5(CCOCC5)C4)nc3c2F)c2ccccc2c1` (single isomer, unassigned) [Compound 259, 4-((S or R)-2-(3-(8-oxa-2-azaspiro[4.5]decan-2-yl)propoxy)-4-((1R,5S)-3,8-diazacyclo[3.2.1]octan-3-yl)-6-chloro-8-fluoroquinazolin-7-yl)naphthalen-2-ol formate], the pIC50 at KRAS-G12D and SOS1 was 7.60; on KRAS_G12D and cRAF it was 6.83; at KRAS_WT and SOS1, 5.83.

For the compound `CCc1cccc2cc(O)cc(-c3c(F)cc4c(N5CC6CCC(C5)N6)nc(OCCCN5CCOC[C@H]5C)nc4c3F)c12` (single isomer, unassigned) [Compound 282a, (S or R)-4-(4-((1R,5S)-3,8-diazacyclo[3.2.1]octan-3-yl)-6,8-difluoro-2-(3-((R)-3-methylmorpholinyl)propoxy)quinazolin-7-yl)-5-ethylnaphthalen-2-ol dihydrochloride], the pIC50 at KRAS-G12D and SOS1 was 7.78; at KRAS_G12D and cRAF, 7.86; at KRAS_WT and SOS1, 6.76.

`CN(C)C1CN(c2nc(N3CCCNCC3)c3cc(Cl)c(-c4cc(O)cc5ccccc45)c(F)c3n2)C1` (single isomer, unassigned) [Compound 23, (S or R)-4-(6-chloro-4-(1,4-diaza-1-yl)-2-(3-(dimethylamino)azetidin-1-yl)-8-fluoroquinazolin-7-yl)naphthalen-2-ol]: the pIC50 at KRAS-G12D and SOS1 was 6.02; at KRAS_G12D and cRAF, 4.65; on KRAS_WT and SOS1, 4.91.

Turning to `C[C@H]1CCCCN1CCOc1nc(N2CC3CCC(C2)N3)c2cc(Cl)c(-c3cc(O)cc4ccccc34)c(F)c2n1` (single isomer, unassigned) [Compound 268, (R or S)-4-(4-((1R,5S)-3,8-diazacyclo[3.2.1]octan-3-yl)-6-chloro-8-fluoro-2-(2-((S)-2-methylpiperidin-1-yl)ethoxy)quinazolin-7-yl)naphthalen-2-ol diformate], the pIC50 is 7.28 on KRAS-G12D and SOS1; 6.46 at KRAS_G12D and cRAF; 5.44 on KRAS_WT and SOS1.

Consider `C#Cc1c(F)ccc2cccc(-c3c(F)cc4c(N5CC6CCC(C5)N6)nc(OC[C@@]56CCCN5C[C@H](F)C6)nc4c3F)c12` (single isomer, unassigned) [Compound 279a, (S or R)-4-((1R,5S)-3,8-diazacyclo[3.2.1]octyl-3-yl)-7-(8-ethynyl-7-fluoronaphthalen-1-yl)-6,8-difluoro-2-((2R,7aS)-2-fluorotetrahydro-1H-pyrrolidin-7a(5H)-yl)methoxy)quinazoline formate], for which the pIC50 at KRAS-G12D and SOS1 was 8.06; at KRAS_G12D and cRAF, 7.96; on KRAS_WT and SOS1, 7.56.

Regarding `C[C@@H]1CCCCN1CCOc1nc(N2CC3CCC(C2)N3)c2cc(Cl)c(-c3cc(O)cc4ccccc34)c(F)c2n1` (single isomer, unassigned) [Compound 269, (S or R)-4-(4-((1R,5S)-3,8-diazacyclo[3.2.1]octan-3-yl)-6-chloro-8-fluoro-2-(2-((R)-2-methylpiperidin-1-yl)ethoxy)quinazolin-7-yl)naphthalen-2-ol formate], the pIC50 at KRAS-G12D and SOS1 was 7.17; on KRAS_G12D and cRAF, 6.47; at KRAS_WT and SOS1, 5.76.

For the origin of these results see US20230365563A1, “QUINAZOLINE COMPOUND AND APPLICATION THEREOF” (SHANGHAI PHARMACEUTICALS HOLDING CO., LTD., priority 2020, published 2023).
